Data as given in PubChem BioAssay AID2060883 (Molecular Pharmacology Branch, DTP, NCI, 2025).

System: 843782-103-R-J1-PDC complex spheroid viability
Assay: Anticancer human tumor 843782-103-R-J1-PDC patient-derived lung adenocarcinoma cell line growth inhibition [RAS]
Conditions: for viability, T/C: stronger effect = lower value
Method in brief: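 Agents were tested in combination matrices in half-log decrements from a top concentration at or near clinical Cmax (10 microM if undetermined). Targets were multi-cell spheroids of tumour lines plus HUVEC and MSC stromal cells.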
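Note: viability read after seven days of compound exposure.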

With `CC(C)n1nc(-c2ccc3oc(N)nc3c2)c2c(N)ncnc21` + C=CC(=O)N1CCN(c2nc(OCC3CCCN3C)nc3c(F)c(-c4nc(N)cc(C)c4C(F)(F)F)c(Cl)cc23)C(C)C1 the IC50 (curve of first compound, second compound 0.00316 µM) was 0.0142 µM, the IC50 (curve of first compound, second compound 0.01 µM) was 0.00903 µM and the IC50 (curve of first compound, second compound 0.0316 µM) was 0.0104 µM. The IC50 (curve of first compound, second compound 0.1 µM) was 0.00853 µM, the IC50 (curve of first compound, second compound 0.316 µM) was 0.00844 µM and the IC50 (curve of first compound, second compound 1 µM) was 0.00984 µM. For the same molecule, the viability, T/C (second compound 0.00316 µM, first compound 0.000316 µM) was 93.5%, the viability, T/C (second compound 0.00316 µM, first compound 0.001 µM) was 72% and the viability, T/C (second compound 0.00316 µM, first compound 0.00316 µM) was 81.2%. For the same molecule, the viability, T/C (second compound 0.00316 µM, first compound 0.01 µM) was 53.2%, the viability, T/C (second compound 0.00316 µM, first compound 0.0316 µM) was 36.3% and the viability, T/C (second compound 0.00316 µM, first compound 0.1 µM) was 21.2%. It also gave a viability, T/C (second compound 0.01 µM, first compound 0.000316 µM) of 86.5%, a viability, T/C (second compound 0.01 µM, first compound 0.001 µM) of 79.8% and a viability, T/C (second compound 0.01 µM, first compound 0.00316 µM) of 63.3%. For the same molecule, the viability, T/C (second compound 0.01 µM, first compound 0.01 µM) was 50.2%, the viability, T/C (second compound 0.01 µM, first compound 0.0316 µM) was 30.8% and the viability, T/C (second compound 0.01 µM, first compound 0.1 µM) was 18.8%. For the same molecule, the viability, T/C (second compound 0.0316 µM, first compound 0.000316 µM) was 84.4%, the viability, T/C (second compound 0.0316 µM, first compound 0.001 µM) was 79.2% and the viability, T/C (second compound 0.0316 µM, first compound 0.00316 µM) was 66.6%. For the same molecule, the viability, T/C (second compound 0.0316 µM, first compound 0.01 µM) was 48.3%, the viability, T/C (second compound 0.0316 µM, first compound 0.0316 µM) was 36.5% and the viability, T/C (second compound 0.0316 µM, first compound 0.1 µM) was 20.9%. It also gave a viability, T/C (second compound 0.1 µM, first compound 0.000316 µM) of 81.6%, a viability, T/C (second compound 0.1 µM, first compound 0.001 µM) of 73.6% and a viability, T/C (second compound 0.1 µM, first compound 0.00316 µM) of 66.4%. The viability, T/C (second compound 0.1 µM, first compound 0.01 µM) was 45.4%, the viability, T/C (second compound 0.1 µM, first compound 0.0316 µM) was 33.1% and the viability, T/C (second compound 0.1 µM, first compound 0.1 µM) was 19.9%. For the same molecule, the viability, T/C (second compound 0.316 µM, first compound 0.000316 µM) was 101%, the viability, T/C (second compound 0.316 µM, first compound 0.001 µM) was 73.5% and the viability, T/C (second compound 0.316 µM, first compound 0.00316 µM) was 67.3%. The viability, T/C (second compound 0.316 µM, first compound 0.01 µM) was 51%, the viability, T/C (second compound 0.316 µM, first compound 0.0316 µM) was 28.8% and the viability, T/C (second compound 0.316 µM, first compound 0.1 µM) was 19.2%. It also gave a viability, T/C (second compound 1 µM, first compound 0.000316 µM) of 85.3%, a viability, T/C (second compound 1 µM, first compound 0.001 µM) of 73.9% and a viability, T/C (second compound 1 µM, first compound 0.00316 µM) of 62.2%. For the same molecule, the viability, T/C (second compound 1 µM, first compound 0.01 µM) was 53.5%, the viability, T/C (second compound 1 µM, first compound 0.0316 µM) was 31.8% and the viability, T/C (second compound 1 µM, first compound 0.1 µM) was 18.7%.
For `NC1c2ccccc2OC12CCN(c1cnc3c(N4CCCc5ncccc54)n[nH]c3n1)CC2` (stereo not drawn) + CCn1c(-c2cc(N3CCN(C)CC3)cnc2C(C)OC)c2c3cc(ccc31)-c1csc(n1)CC(NC(=O)C1CC1C)C(=O)N1CCCC(N1)C(=O)OCC(C)(C)C2, the IC50 (curve of first compound, second compound 0.000949 µM) was < 0.0316 µM, the IC50 (curve of first compound, second compound 0.003 µM) was < 0.0316 µM and the IC50 (curve of first compound, second compound 0.00949 µM) was < 0.0316 µM. For the same molecule, the IC50 (curve of first compound, second compound 0.03 µM) was < 0.0316 µM, the IC50 (curve of first compound, second compound 0.0949 µM) was < 0.0316 µM and the IC50 (curve of first compound, second compound 0.3 µM) was < 0.0316 µM. It also gave a viability, T/C (second compound 0.000949 µM, first compound 0.0316 µM) of 39.3%, a viability, T/C (second compound 0.000949 µM, first compound 0.1 µM) of 25.7% and a viability, T/C (second compound 0.000949 µM, first compound 0.316 µM) of 20%. It also gave a viability, T/C (second compound 0.000949 µM, first compound 1 µM) of 19.5%, a viability, T/C (second compound 0.000949 µM, first compound 3.16 µM) of 16.9% and a viability, T/C (second compound 0.000949 µM, first compound 10 µM) of 12.2%. It also gave a viability, T/C (second compound 0.003 µM, first compound 0.0316 µM) of 27.1%, a viability, T/C (second compound 0.003 µM, first compound 0.1 µM) of 19.2% and a viability, T/C (second compound 0.003 µM, first compound 0.316 µM) of 17.9%. It also gave a viability, T/C (second compound 0.003 µM, first compound 1 µM) of 16.2%, a viability, T/C (second compound 0.003 µM, first compound 3.16 µM) of 13.6% and a viability, T/C (second compound 0.003 µM, first compound 10 µM) of 10.3%. The viability, T/C (second compound 0.00949 µM, first compound 0.0316 µM) was 24.2%, the viability, T/C (second compound 0.00949 µM, first compound 0.1 µM) was 15.6% and the viability, T/C (second compound 0.00949 µM, first compound 0.316 µM) was 17%. It also gave a viability, T/C (second compound 0.00949 µM, first compound 1 µM) of 15%, a viability, T/C (second compound 0.00949 µM, first compound 3.16 µM) of 12.8% and a viability, T/C (second compound 0.00949 µM, first compound 10 µM) of 8.86%. It also gave a viability, T/C (second compound 0.03 µM, first compound 0.0316 µM) of 16.8%, a viability, T/C (second compound 0.03 µM, first compound 0.1 µM) of 14.8% and a viability, T/C (second compound 0.03 µM, first compound 0.316 µM) of 12.6%. For the same molecule, the viability, T/C (second compound 0.03 µM, first compound 1 µM) was 12.7%, the viability, T/C (second compound 0.03 µM, first compound 3.16 µM) was 14.2% and the viability, T/C (second compound 0.03 µM, first compound 10 µM) was 9.33%. It also gave a viability, T/C (second compound 0.0949 µM, first compound 0.0316 µM) of 18.1%, a viability, T/C (second compound 0.0949 µM, first compound 0.1 µM) of 14% and a viability, T/C (second compound 0.0949 µM, first compound 0.316 µM) of 15.2%. For the same molecule, the viability, T/C (second compound 0.0949 µM, first compound 1 µM) was 13.8%, the viability, T/C (second compound 0.0949 µM, first compound 3.16 µM) was 12.2% and the viability, T/C (second compound 0.0949 µM, first compound 10 µM) was 9.38%. The viability, T/C (second compound 0.3 µM, first compound 0.0316 µM) was 13.6%, the viability, T/C (second compound 0.3 µM, first compound 0.1 µM) was 13.6% and the viability, T/C (second compound 0.3 µM, first compound 0.316 µM) was 13.6%. For the same molecule, the viability, T/C (second compound 0.3 µM, first compound 1 µM) was 12.8%, the viability, T/C (second compound 0.3 µM, first compound 3.16 µM) was 11.7% and the viability, T/C (second compound 0.3 µM, first compound 10 µM) was 7.8%.
In the case of `CCn1c(-c2cccnc2C(C)OC)c2c3cc(ccc31)N1CCOC(CC(NC(=O)C(C(C)C)N(C)C(=O)C3(F)CCN(C(=O)C#CC(C)(C)N(C)C)CC3)C(=O)N3CCCC(N3)C(=O)OCC(C)(C)C2)C1` (stereo not drawn), the viability, T/C (compound 0.000949 µM) is reported as 82.9% [middle of 8 runs], the viability, T/C (compound 0.003 µM) is reported as 80.1% [middle of 8 runs] and the viability, T/C (compound 0.00949 µM) is reported as 79.1% [middle of 8 runs]. The viability, T/C (compound 0.03 µM) was 75.8% [middle of 8 runs], the viability, T/C (compound 0.0949 µM) was 68.4% [middle of 8 runs] and the viability, T/C (compound 0.3 µM) was 67.3% [middle of 8 runs]. The IC50 (compound alone, run of 08/20/2024) was > 0.3 µM.
`CCc1c2c(nc3ccc(O)cc13)-c1cc3c(c(=O)n1C2)COC(=O)[C@]3(O)CC` was tested, and the viability, T/C (compound 0.000949 µM) was 94.2% [middle of 4 runs], the viability, T/C (compound 0.003 µM) was 26% [middle of 4 runs] and the viability, T/C (compound 0.00949 µM) was 6.94% [middle of 4 runs]. The viability, T/C (compound 0.03 µM) was 3.31% [middle of 4 runs], the viability, T/C (compound 0.0949 µM) was 1.33% [middle of 4 runs] and the viability, T/C (compound 0.3 µM) was 0.94% [middle of 4 runs]. The IC50 (curve of compound) was 1.88 nM [middle of 4 runs].
